# Results taken from US4281180A, “Process for producing threo-3-amino-2-hydroxybutanoyl-aminoacetic acids, as well as novel intermediated therefor and process for producing them” (Nippon Kayaku Kabushiki Kaisha, priority 1978, dated 1981).
# Molecular target: T1, aminopeptidase B (Rattus norvegicus, UniProt O09175)
# T1 construct: an aminopeptidase B solution purified by the same enzyme purification process as in the process by Hopsu et al; from tissue
# T1 sequence (O09175 1-650): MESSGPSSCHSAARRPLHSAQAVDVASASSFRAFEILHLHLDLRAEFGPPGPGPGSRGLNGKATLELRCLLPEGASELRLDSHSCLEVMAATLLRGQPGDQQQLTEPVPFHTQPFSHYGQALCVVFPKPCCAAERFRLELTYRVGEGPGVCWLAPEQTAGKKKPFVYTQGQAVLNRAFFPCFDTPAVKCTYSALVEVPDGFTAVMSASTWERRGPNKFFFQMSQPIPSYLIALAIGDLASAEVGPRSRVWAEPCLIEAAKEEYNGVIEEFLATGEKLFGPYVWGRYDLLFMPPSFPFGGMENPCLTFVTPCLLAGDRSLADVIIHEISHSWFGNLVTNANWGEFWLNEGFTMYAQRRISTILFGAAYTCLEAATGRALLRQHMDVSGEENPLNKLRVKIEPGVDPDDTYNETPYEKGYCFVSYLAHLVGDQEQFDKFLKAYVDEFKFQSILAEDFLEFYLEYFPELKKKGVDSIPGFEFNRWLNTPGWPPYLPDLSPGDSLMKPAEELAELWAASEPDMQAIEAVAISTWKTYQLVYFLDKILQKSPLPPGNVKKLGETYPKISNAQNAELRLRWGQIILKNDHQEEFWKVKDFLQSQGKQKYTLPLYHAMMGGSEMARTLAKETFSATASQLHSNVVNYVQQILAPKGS
# Assay: Inhibitory Activity to Aminopeptidase B
# Type: biochemical
# Details: pH 7.0, 37° C., 30 minutes, substrate arginine-β-naphthylamide; read-out: IC50 (50% inhibitory ratio) (converted)
# Procedure: Measurement for the inhibitory activity to aminopeptisase B was conducted by the method reported by Hopsu et al. while somewhat modifying the process [V. K. Hopsu, K. K. Makinen, G. G. Glenner; Archives of Biochemistry and Biophysics, 114, 557 (1966)].
# A mixed solution (pH 7.0) prepared by adding 1.0 ml of a 0.1 M tris-hydrochloric acid buffer solution and 0.7 ml of a solution containing a test specimen to 0.3 ml of 0.1 mM arginine-β-naphthylamide was heated at 37° C. for 4 minutes. Thereafter, 0.2 ml of an aminopeptidase B solution purified by the same enzyme purification process as in the process by Hopsu et al. using Sephadex G-100 (registered Trademark) was added and reacted at 37° C. for 30 minutes. Then, 0.6 ml of a 1.0 M acetic acid buffer solution (pH 4.2) containing Garnet GBC (o-aminoazotoluenediazonium salt) at 1.0 mg/ml concentration and containing Tween 20 (registered trademark) at 1.0% concentration was further added and left for 15 minutes at room temperature, after which absorption ratio (a) at 530 nm was measured. The absorption ratio (b) for the blind solution using only the buffer solution containing no specimen was simultaneously mesured, and the inhibitory ratio to aminopeptidase B was calculated as (b-a)/b×100.
# Inhibitory ratios for each of the specimens at several concentrations were determined by the above test method, from which 50% inhibitory ratios (IC50) were deduced.
row,IC50 [nM],Compound
1,342,CC(C)C[C@H](NC(=O)C(O)C(N)Cc1ccc(C(C)C)cc1)C(=O)O (stereo partly drawn) [compound 7]
2,4180,"CC(C)C[C@H](NC(=O)C(O)C(N)Cc1cccc2ccccc12)C(=O)O (stereo partly drawn) [No. 4, Threo-(2RS)-3-amino-2-hydroxy-4-(1-naphthyl)butanoyl-(S)-leucine]"
3,216,"COc1ccc(C[C@@H](N)[C@H](O)C(=O)N[C@H](C(=O)O)C(C)C)cc1 [No. 14, (2S,3R)-3-amino-2-hydroxy-4-(4-methoxyphenyl)butanoyl-(S)-valine]"
4,8570,"COc1ccccc1CC(N)C(O)C(=O)N[C@@H](CC(C)C)C(=O)O (stereo partly drawn) [No. 2, Threo-(2RS)-3-amino-2-hydroxy-4-(2-methoxyphenyl)butanoyl-(S)-leucine]"
5,7680,"CC(C)Cc1ccc(CC(N)C(O)C(=O)N[C@@H](CC(C)C)C(=O)O)cc1 (stereo partly drawn) [No. 8, Threo-(2RS)-3-amino-2-hydroxy-4-(4-iso-butylphenyl)butanoyl-(S)-leucine]"
6,9360,"CC(C)C[C@H](NC(=O)C(O)C(N)Cc1ccc(-c2ccccc2)cc1)C(=O)O (stereo partly drawn) [No. 6, Threo-(2RS)-3-amino-2-hydroxy-4-(4-phenylphenyl)butanoyl-(S)-leucine]"
7,118,"COc1cccc(CC(N)C(O)C(=O)N[C@@H](CC(C)C)C(=O)O)c1 (stereo partly drawn) [No. 3, Threo-(2RS)-3-amino-2-hydroxy-4-(3-methoxyphenyl)butanoyl-(S)-leucine]"
8,17.7,"COc1ccc(C[C@@H](N)[C@H](O)C(=O)N[C@@H](CC(C)C)C(=O)O)cc1 [No. 1, (2S,3R)-3-amino-2-hydroxy-4-(4-methoxyphenyl)butanoyl-(S)-leucine]"
9,279,"CC(C)C[C@H](NC(=O)C(O)C(N)Cc1ccc2ccccc2c1)C(=O)O (stereo partly drawn) [No. 5, Threo-(2RS)-3-amino-2-hydroxy-4-(2-naphthyl)butanoyl-(S)-leucine]"
10,277,"CC(C)C[C@H](NC(=O)C(O)C(N)Cc1cccc(O)c1)C(=O)O (stereo partly drawn) [No. 16, Threo-(2RS)-3-amino-2-hydroxy-4-(3-hydroxyphenyl)butanoyl-(S)-leucine]"
11,83.7,"CC[C@H](C)[C@H](NC(=O)C(O)C(N)Cc1ccc2ccccc2c1)C(=O)O (stereo partly drawn) [No. 13, Threo-(2RS)-3-amino-2-hydroxy-4-(2-naphthyl)butanoyl-(S)-isoleucine]"
12,18600,"CC(C)C[C@H](NC(=O)C(O)C(N)Cc1ccc(OC(C)C)cc1)C(=O)O (stereo partly drawn) [No. 10, Threo-(2RS)-3-amino-2-hydroxy-4-(4-iso-propoxyphenyl)butanoyl-(S)-leucine]"
13,91.9,"CC(C)C[C@H](NC(=O)C(O)C(N)Cc1ccc(F)cc1)C(=O)O (stereo partly drawn) [No. 12, Threo-(2RS)-3-amino-2-hydroxy-4-(4-fluorophenyl)butanoyl-(S)-leucine]"
14,5290,"CC(C)C[C@H](NC(=O)C(O)C(N)Cc1ccc(O)c(O)c1)C(=O)O (stereo partly drawn) [No. 9, Threo-(2RS)-3-amino-2-hydroxy-4-(3,4-dihydroxyphenyl)butanoyl-(S)-leucine]"
15,1630,"CC(C)C[C@H](NC(=O)C(O)C(N)Cc1ccccc1O)C(=O)O (stereo partly drawn) [No. 15, Threo-(2RS)-3-amino-2-hydroxy-4-(2-hydroxyphenyl)butanoyl-(S)-leucine]"

row,Compound,IC50 [nM]
1,"CC(C)COc1ccc(CC(N)C(O)C(=O)N[C@@H](CC(C)C)C(=O)O)cc1 (stereo partly drawn) [No. 11, Threo-(2RS)-3-amino-2-hydroxy-4-(4-iso-butoxyphenyl)butanoyl-(S)-leucine]",11800

# Tested on: cancer
# Assay: not given
# Details: Japanese Patent Laid-Open Publication No. 117435/1977; cited from earlier work
row,Compound,effects for cancer
1,"CC(C)C[C@H](NC(=O)[C@@H](O)[C@H](N)Cc1ccccc1)C(=O)O [bestatin, (2S,3R)-3-amino-2-hydroxy-4-phenylbutanoyl-(S)-leucine]",inhibitive effects for cancer

# Tested on: immunoresponse
# Assay: not given
# Details: Japanese Patent Laid-Open Publication No. 117435/1977; cited from earlier work
Compound,effect to immunoresponse such as delayed hypersthesia,in vivo defense mechanism
"CC(C)C[C@H](NC(=O)[C@@H](O)[C@H](N)Cc1ccccc1)C(=O)O [bestatin, (2S,3R)-3-amino-2-hydroxy-4-phenylbutanoyl-(S)-leucine]",increasing effect to immunoresponse such as delayed hypersthesia,activate in vivo defense mechanism

# Tested on: not given
# Assay: not given
# Details: isolated from culture filtrates of Streptomyces olivoreticuli; cited from earlier work
row,Compound,toxicity
1,"CC(C)C[C@H](NC(=O)[C@@H](O)[C@H](N)Cc1ccccc1)C(=O)O [bestatin, (2S,3R)-3-amino-2-hydroxy-4-phenylbutanoyl-(S)-leucine]",least toxic

# Molecular target: T1, aminopeptidase B
# Assay: not given
# Details: U.S. Pat. No. 4,029,547; cited from earlier work
row,Compound,aminopeptidase B inhibitor
1,"CC(C)C[C@H](NC(=O)[C@@H](O)[C@H](N)Cc1ccccc1)C(=O)O [bestatin, (2S,3R)-3-amino-2-hydroxy-4-phenylbutanoyl-(S)-leucine]",aminopeptidase B inhibitor
